Measurements reported in patent US7425580B2, “(Diaryl-methyl)-malononitriles and their use as estrogen receptor ligands” (Wyeth, priority 2004, dated 2008).

Legend:
uterine wet weight = experiment: Uterine wet weight increase in ovariectomized C57BL/6 mice; type: in vivo; conditions: EE 0.01 mg/kg/day, test compound 10 mg/kg/day, gavage, 5 weeks; for Uterine Wet Weight Increase, Fold Increase: compared to vehicle control
Protocol: Ovariectomized C57BL/6 mice (16-20 g) (Taconic) were separated into groups of 8. After 5-7 days of recuperation, the mice were fed a chow diet or an atherogenic diet (15.75% fat, 1.25% cholesterol and 0.5% sodium cholate) (Purina diet #21539). EE or test compound was administered once daily by gavage in a methylcellulose/tween vehicle (0.1 ml per mouse) for 5 weeks. At the end of the experimental period, the liver was collected and uterine wet weight was recorded. To determine the ability of estrogens to regulate the development of diet-induced inflammation in the liver, gene expression changes resulting from the atherogenic diet were monitored. Ovariectomized C57BL/6 mice were fed either a chow or atherogenic diet and treated daily with EE (0.01 mg/kg) or test compound (10 mg/kg) (Table 3).

[1] = test system: NF-κB target genes (MHC invariant chain, VCAM-1, RANTES, TNF-α mRNA); experiment: Liver inflammatory gene expression (real time RT-PCR) in ovariectomized C57BL/6 mice on atherogenic diet; type: in vivo; conditions: EE 0.01 mg/kg daily
Protocol: Ovariectomized C57BL/6 mice (16-20 g) (Taconic) were separated into groups of 8. After 5-7 days of recuperation, the mice were fed a chow diet or an atherogenic diet (15.75% fat, 1.25% cholesterol and 0.5% sodium cholate) (Purina diet #21539). EE or test compound was administered once daily by gavage in a methylcellulose/tween vehicle (0.1 ml per mouse) for 5 weeks. At the end of the experimental period, the liver was collected and uterine wet weight was recorded.
Liver total RNA was prepared by using Trizol reagent (BRL). Estrogen and compound regulation of NF-κB target genes were verified by real time RT-PCR using an ABI PRISM 7700 Sequence Detection System according to the manufacturer's protocol (Applied Biosystems). The data was analyzed using the Sequence Detector v1.7 software (Applied Biosystems) and normalized to GAPDH using the Applied Biosystems primer set.
To determine the ability of estrogens to regulate the development of diet-induced inflammation in the liver, gene expression changes resulting from the atherogenic diet were monitored. Ovariectomized C57BL/6 mice were fed either a chow or atherogenic diet and treated daily with EE (0.01 mg/kg) or test compound (10 mg/kg) (Table 3).

NF-κB [2] = experiment: NF-κB luciferase reporter in non ER infected HAECT-1 cells; type: cell-based, human
Protocol: T-175 flasks of 100% confluent HAECT-1 cells (immortalized human aortic endothelial cells) were washed with 8 ml of HBSS (HEPES buffered saline solution) and infected for four hours with 6 ml of a 1:10 dilution of Ad5-wt-hERα virus (an adenovirus transfection vector that mediates CMV promoter driven expression of human ERα) in phenol red free Endothelial Cell Basal medium (Clonetics, San Diego Calif., Catalog # CC-3129) containing 0.25% bovine serum albumin (EBM-BSA). After four hours, cells were washed with EBM-BSA and incubated overnight in the same medium. […] Cells were then washed, trypsinized, counted and resuspended in 95% FBS/5% dimethylsulfoxide at a concentration of 4×10^6 cells/ml, frozen as 1 or 5 ml aliquots in cryo-vials and stored at −150° C. […]
ERα infected HAECT-1 cells or control cells were thawed, diluted 42× in warm EBM-BSA, plated into 96-well plates at 0.1 ml/well and incubated for 4 h at 34° C. […] Luciferase was determined on a Wallac Victor^2 Luminometer (Gaithersburg, Md.) using 10 μl of lysate and mixing with 100 μl of Promega Luciferase Assay reagent. Creatine kinase was determined from the rate of increase in A340 following addition of 100 μl of CK assay reagent (Sigma, cat. No 47-10) to the remainder of the cell lysate. […]

IL-6 = IL-6 expression (ELISA) in Ad5-wt-ER infected HAECT-1 cells (IL-1β stimulated); type: cell-based, human; conditions: for IL-6 Efficacy: relative to maximal inhibition observed with E2
Protocol: (§1) T-175 flasks of 100% confluent HAECT-1 cells (immortalized human aortic endothelial cells) were washed with 8 ml of HBSS (HEPES buffered saline solution) and infected for four hours with 6 ml of a 1:10 dilution of Ad5-wt-hERα virus (an adenovirus transfection vector that mediates CMV promoter driven expression of human ERα) in phenol red free Endothelial Cell Basal medium (Clonetics, San Diego Calif., Catalog # CC-3129) containing 0.25% bovine serum albumin (EBM-BSA). After four hours, cells were washed with EBM-BSA and incubated overnight in the same medium. Following overnight incubation, cells were washed with EBM-BSA and infected for 2 hours with 6 ml of a 1:10 dilution of Ad5-3×(NFKκB).Luc virus (Adenovirus luciferase expression vector driven by 3 repeats of the MHC NFκβ site 5′ to the thymidine kinase promoter) in EBM-BSA. After two hours, cells were washed and incubated at 34° C. for 1 hour. Cells were then washed, trypsinized, counted and resuspended in 95% FBS/5% dimethylsulfoxide at a concentration of 4×10^6 cells/ml, frozen as 1 or 5 ml aliquots in cryo-vials and stored at −150° C. Control (no ER infection) cells were processed as above without Ad5-wt-hERα virus infection.
(§2) ERα infected HAECT-1 cells or control cells were thawed, diluted 42× in warm EBM-BSA, plated into 96-well plates at 0.1 ml/well and incubated for 4 h at 34° C. Test compounds were added to the cells as 2× stocks in EBM-BSA containing 2 ng/ml IL-1β (R&D Systems) and plates were returned to the incubator (34° C.). After 15-20 h, 100 μl aliquots of media were removed from the cells and assayed for IL-6 content using a BioSource human IL-6 ELISA Kit. Cells were subsequently washed with 300 μl of Dulbecco's phosphate buffered saline and lysed in 50 μl of Cell Culture Lysis Reagent (Promega). Luciferase was determined on a Wallac Victor^2 Luminometer (Gaithersburg, Md.) using 10 μl of lysate and mixing with 100 μl of Promega Luciferase Assay reagent. Creatine kinase was determined from the rate of increase in A340 following addition of 100 μl of CK assay reagent (Sigma, cat. No 47-10) to the remainder of the cell lysate.
(§3) For IC50 and EC50 calculations, mean IL-6, luciferase or CK values versus log10 of the compound concentration were fitted to a four parameter logistic equation. The IC50/EC50 value, ‘Hill slope’, upper and lower limits of the curve were iteratively estimated.

creatine kinase = experiment: Creatine kinase expression in Ad5-wt-ER infected HAECT-1 cells; type: cell-based, human; conditions: for IC50: Homo sapiens, HAECT1, stimulation of CK; for CK Efficacy: relative to maximal stimulation observed with E2
Protocol: as §1, §2, §3

NF-κB [3] = experiment: NF-κB luciferase reporter in Ad5-wt-ER infected HAECT-1 cells (IL-1β stimulated); type: cell-based, human; conditions: for Emax: relative to maximal inhibition observed with E2, read-out: NF-κB Efficacy
Protocol: as §1, §2, §3

[4] = Ad5-wt-ER infected HAECT-1 cells
[5] = Homo sapiens, HAECT1, Ad5-wt-ER infected HAECT-1 cells

Structure (SMILES)	IC50 (IL-6; [5]) [µM]	IC50 (creatine kinase) [µM]	IC50 (NF-κB [3]; [5]) [µM]	IL-6 Efficacy (IL-6; [4]) [%]	CK Efficacy (creatine kinase) [%]	Emax (NF-κB [3]; [5]) [%]	other results
C#C[C@]1(O)CC[C@H]2[C@@H]3CCc4cc(O)ccc4[C@H]3CC[C@@]21C [EE, 17α-ethinyl-17β-estradiol, reference compound]	–	–	–	–	–	–	Uterine Wet Weight Increase, Efficacy (uterine wet weight): 100%; Uterine Wet Weight Increase, Fold Increase (uterine wet weight): 5.0; Atherogenic diet induction of mRNA for MHC invariant chain, VCAM-1, RANTES and TNF-α in liver [1]: strongly suppressed
COc1ccccc1C(c1cccc2ccccc12)C(C#N)C#N (stereo not drawn) [Ex. 1, 2-[(2-Methoxyphenyl)(1-naphthyl)methyl]malononitrile]	1.22	0.0087	–	118	27	–	NF-κB IC50 (NF-κB [2]): inactive
COc1cccc(C(c2cccc3ccccc23)C(C#N)C#N)c1 (stereo not drawn) [Ex. 3, 2-[(3-Methoxyphenyl)(1-naphthyl)methyl]malononitrile]	1.04	–	0.853	92	–	138	–
Cc1ccc(C(c2cccc3ccccc23)C(C#N)C#N)cc1 (stereo not drawn) [Ex. 5, 2-[(4-Methylphenyl)(1-naphthyl)methyl]malononitrile]	–	–	1.66	–	–	154	–
COc1ccc(C(c2cccc3ccccc23)C(C#N)C#N)cc1 (stereo not drawn) [Ex. 6, 2-[(4-Methoxyphenyl)(1-naphthyl)methyl]malononitrile]	–	–	1.64	–	–	137	–
N#CC(C#N)C(c1cccc2ccccc12)c1cccc2ccccc12 [Ex. 8, 2-[Di(1-naphthyl)methyl]malononitrile]	0.56	–	0.768	152	–	176	IC50 (NF-κB [3]; [4]): 0.581 µM; melting point: 179 to 181 °C

Further lines, with some results ahead:

IC50 (IL-6; [5]) [µM]	IC50 (creatine kinase) [µM]	IC50 (NF-κB [3]; [5]) [µM]	Structure (SMILES)	IL-6 Efficacy (IL-6; [4]) [%]	CK Efficacy (creatine kinase) [%]	Emax (NF-κB [3]; [5]) [%]	other results
1.01	–	–	Cc1ccccc1C(c1cccc2ccccc12)C(C#N)C#N (stereo not drawn) [Ex. 4, 2-[(2-Methylphenyl)(1-naphthyl)methyl]malononitrile]	127	–	–	–
0.024	0.0307	0.0099	COc1ccccc1C(c1cccc2ccccc12)C(C)(C#N)C#N (stereo not drawn) [Ex. 7, 2-[(2-Methoxyphenyl)(1-naphthyl)methyl]-2-methylmalononitrile]	144	28	98	NF-κB IC50 (NF-κB [2]): inactive; Uterine Wet Weight Increase, Efficacy (uterine wet weight): 18%; Uterine Wet Weight Increase, Fold Increase (uterine wet weight): 2.2; IC50 (NF-κB [3]; [4]): 0.0175 µM; melting point: 175 to 177 °C
–	0.0058	–	C[C@]12CC[C@@H]3c4ccc(O)cc4CC[C@H]3[C@@H]1CC[C@@H]2O [Example E2, 17β-estradiol, reference compound]	100	100	–	IC50 (IL-6; [4]): 0.0017 µM
